We go through 27 compounds from patent publication US6096771A, “Isoxazole derivatives” (Sankyo Company, Limited, priority 1994, dated 2000).

Counter-ions that a name gives are not always drawn.

System in the first assay: not given
Experiment: not given
The settings on record: Farmaco, Ed. Sci., 23, 1081 (1968); 24, 440 (1969); cited from earlier work.
For `CN(C)CCOc1noc2ccccc12` [Compound B, 3(2-N,NDimethylamino)ethoxy-1,2-benzisoxazole], the “local (infiltration) anaesthetic effect” value is recorded as “local (infiltration) anaesthetic effect”.

A further assay has as its target T1, B-type monoamine oxidase (Mus musculus, UniProt Q8BW75).
T1 sequence (Q8BW75 1-520): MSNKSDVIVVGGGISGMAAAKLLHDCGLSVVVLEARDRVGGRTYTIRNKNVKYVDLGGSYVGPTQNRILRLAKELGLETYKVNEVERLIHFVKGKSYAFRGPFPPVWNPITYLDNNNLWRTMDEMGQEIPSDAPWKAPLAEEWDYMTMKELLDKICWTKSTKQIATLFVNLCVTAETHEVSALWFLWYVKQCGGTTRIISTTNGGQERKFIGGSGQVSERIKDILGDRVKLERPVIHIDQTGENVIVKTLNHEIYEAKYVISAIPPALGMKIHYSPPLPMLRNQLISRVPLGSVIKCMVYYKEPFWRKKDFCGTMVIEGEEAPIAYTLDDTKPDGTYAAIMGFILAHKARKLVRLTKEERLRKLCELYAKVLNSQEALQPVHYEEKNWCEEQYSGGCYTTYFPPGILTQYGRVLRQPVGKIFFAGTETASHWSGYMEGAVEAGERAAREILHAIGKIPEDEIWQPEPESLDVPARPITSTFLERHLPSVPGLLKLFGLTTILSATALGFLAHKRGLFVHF
The experiment in a line: Monoamine oxidase-inhibitory activity, B-type (crude mitochondria of mouse brain, 14C-2-phenylethylamine substrate). The class given is biochemical. Particulars: 14C-PEA 20 μM, pH 7.4, 38° C., 20 min preincubation.
Compound `NCCOc1noc2ncccc12` [10(e), 3-(2-Aminoethoxy)pyrido[3,2-d]isoxazole Dihydrochloride] yielded a half-inhibitory concentration (IC50) of 10.2 nM.

In turn, `NCCOc1noc2ncccc12` [10(f), 3-(2-Aminoethoxy)pyrido[3,2-d]isoxazole Hydrochloride] returned an IC50 of 13.5 nM.

Take `NCCOc1noc2ccc(Cl)cc12` [Example 1, 3-(2-Aminoethoxy)-5-chloro-1,2-benzisoxazole hydrochloride]: the midpoint of inhibition, the IC50, lay at 0.37 nM.

Compound `NCCOc1noc2ccccc12` [Example 2, 3-(2-Aminoethoxy)-1,2-benzisoxazole hydrochloride] came in with an IC50 of 1.85 nM.

`NCCOc1noc2ccc(F)cc12` [Example 5, 3-(2-Aminoethoxy)-5-fluoro-1,2-benzisoxazole hydrochloride] had a 50% inhibitory concentration (IC50) of 1.35 nM.

`COc1ccc2onc(OCCN)c2c1` [Example 6, 3-(2-Aminoethoxy)-5-methoxy-1,2-benzisoxazole hydrochloride]: the 50% inhibitory concentration (IC50) was found to be 5.6 nM.

In turn, `Cc1ccc2onc(OCCN)c2c1` [Example 7, 3-(2-Aminoethoxy)-5-methyl-1,2-benzisoxazole Hydrochloride] registered a concentration for half-maximal inhibition (IC50) of 0.56 nM.

On to `NCCOc1noc2ccc([N+](=O)[O-])cc12` [Example 8, 3-(2-Aminoethoxy)-5-nitro-1,2-benzisoxazole Hydrochloride], for which the concentration for half-maximal inhibition (IC50) came out at 0.56 nM.

`NCCOc1noc2c(Cl)cccc12` [Example 9, 3-(2-Aminoethoxy)-7-chloro-1,2-benzisoxazole Hydrochloride] came in with an IC50 of 20 nM.

Turning to `NCCOc1noc2cc(Cl)ccc12` [Example 11, 3-(2-Aminoethoxy)-6-chloro-1,2-benzisoxazole Hydrochloride], it took 2.8 nM to reach half-maximal inhibition (IC50).

Regarding `NCCOc1noc2c(Cl)cc(Cl)cc12` [Example 12, 3-(2-Aminoethoxy)-5,7-dichloro-1,2-benzisoxazole Hydrochloride], the half-maximal inhibitory concentration (IC50) was determined as 26.5 nM.

Compound `Cc1cccc2c(OCCN)noc12` [Example 13, 3-(2-Aminoethoxy)-7-methyl-1,2-benzisoxazole Hydrochloride] yielded an IC50 of 27.5 nM.

Compound `Cc1ccc2c(OCCN)noc2c1` [Example 14, 3-(2-Aminoethoxy)-6-methyl-1,2-benzisoxazole Hydrochloride] had an IC50 of 21.5 nM.

`NCCOc1noc2ccc(Br)cc12` [Example 15, 3-(2-Aminoethoxy)-5-bromo-1,2-benzisoxazole Hydrochloride] registered an IC50 of 0.32 nM.

As to `Cc1c(F)ccc2onc(OCCN)c12` [Example 17, 3-(2-Aminoethoxy)-5-fluoro-4-methyl-1,2-benzisoxazole Hydrochloride], the half-maximal inhibitory concentration (IC50) is 4.2 nM.

In turn, `CSc1c(F)ccc2onc(OCCN)c12` [Example 21, 3-(2-Aminoethoxy)-5-fluoro-4-methylthio-1,2-benzisoxazole Hydrochloride] yielded an IC50 of 4.7 nM.

With `N#Cc1cccc2onc(OCCN)c12` [Example 24, 3-(2-Aminoethoxy)-4-cyano-1,2-benzisoxazole hydrochloride], the IC50 stood at 6.8 nM.

As for `NCCSc1noc2ccc(F)cc12` [Example 26, 3-(2-Aminoethylthio)-5-fluoro-1,2-benzisoxazole hydrochloride], half-maximal inhibition (IC50) required 2.7 nM.

Compound `COc1ccc2onc(SCCN)c2c1` [Example 33, 3-(2-Aminoethylthio)-5-methoxy-1,2-benzisoxazole hydrochloride] came in with a half-maximal inhibitory concentration (IC50) of 4.5 nM.

In turn, `Cc1ccc2onc(SCCN)c2c1` [Example 34, 3-(2-Aminoethylthio)-5-methyl-1,2-benzisoxazole hydrochloride] displayed a concentration for half-maximal inhibition (IC50) of 2.2 nM.

As for `NCCSc1noc2ccc([N+](=O)[O-])cc12` [Example 35, 3-(2-Aminoethylthio)-5-nitro-1,2-benzisoxazole hydrochloride], the concentration for half-maximal inhibition (IC50) stood at 9 nM.

Take `NCCSc1noc2ccc(Cl)cc12` [Example 38, 3-(2-Aminoethylthio)-5-chloro-1,2-benzisoxazole hydrochloride]: 2.95 nM corresponded to half-maximal inhibition (IC50).

On to `COC(=O)c1ccc2onc(OCCN)c2c1` [Example 42, 3-(2-Aminoethoxy)-5-methoxycarbonyl-1,2-benzisoxazole hydrochloride], for which the IC50 was found to be 18 nM.

Turning to `NCCOc1noc2ccc(OC(F)F)cc12` [Example 44, 3-(2-Aminoethoxy)-5-difluoromethoxy-1,2-benzisoxazole hydrochloride], the IC50 worked out at 6 nM.

In turn, `Cc1cc(Cl)cc2c(SCCN)noc12` [Example 56, 3-(2-Aminoethylthio)-5-chloro-7-methyl-1,2-benzisoxazole hydrochloride] displayed a half-maximal inhibitory concentration (IC50) of 6.6 nM.

The same assay, now with this note: 14C-PEA 20 μM, pH 7.4, 38° C., reference compounds A and B.
With `CNCCOc1noc2ccccc12` [Compound A, 3(2-N-Methylamino)ethoxy-1,2-benzisoxazole, reference compound], the 50% inhibitory concentration (IC50) was determined as 2350 nM.

Turning to `CN(C)CCOc1noc2ccccc12` [Compound B, 3(2-N,NDimethylamino)ethoxy-1,2-benzisoxazole], the IC50 came out at 4700 nM.

System in a further assay: not given
Experiment: not given
Particulars: Farmaco, Ed. Sci., 23, 1081 (1968); 24, 440 (1969); cited from earlier work. The source holds these as a separate data set.
On to `CN(C)CCOc1noc2ccccc12` [Compound B, 3(2-N,NDimethylamino)ethoxy-1,2-benzisoxazole], for which the anti-inflammatory effects entry is on record as “possesses anti-inflammatory effects”.

A word on the IC50: it is the point on the concentration scale where inhibition reaches its midpoint. Low readings indicate inhibition by little substance, high ones a need for much substance.
